{
  "source": "patent US11331299B2",
  "about": "“Medicinal use of serrulatane diterpenes” (The University of Sydney, priority 2016, dated 2022)",
  "key": {"[1]": {"tested_on": "HREC", "assay": "OncoPanel normal cell proliferation assay (3-day)", "format": "cell-based"}, "[2]": {"target": "Lipid Peroxidase", "assay": "Lipid Peroxidase", "format": "biochemical, Dunkin Hartley Guinea pig", "conditions": "concentration-response 10 to 0.01 μM"}, "[3]": {"assay": "Keratinocyte cell viability, CCL2 assay (assay number 1243)", "format": "cell-based, human", "conditions": "human; read-out: Inhibition of cell viability, Max Effect"}, "[4]": {"tested_on": "primary human keratinocytes", "assay": "Keratinocyte cell viability, CCL2 assay (assay number 1243)", "format": "cell-based", "conditions": "Homo sapiens, Keratinocyte; read-out: Inhibition of cell viability, Rel EC50"}, "[5]": {"format": "in vivo, female NOD/SCID mice", "conditions": "for Body Weight: single animals No. 1-3", "protocol": "Two studies were conducted by Eurofins Panlabs Taiwan, Ltd. The purpose of Study 1 was to assess the possible adverse effects of Compound 1 alone or in combination with […] in Maximum Tolerated Dose (MTD) assay. The purpose of Study 2 is a follow-up study performed at escalating doses.\nCompound 1 was dissolved in 10% Tween 20/90% PBS or 20% Tween 20/80% PBS for IP injections. Compound 1 was administrated alone or in combination with […] at a dosing volume of 10 or 20 mL/kg for each substance.\nFor mortality, test substance (Compound 1; 100 mg/kg) alone or in combination with […] (8.75, 17.5, or 35 mg/kg; given on the same day) was administered to mice by IP injection to evaluate the possible adverse effects in MTD assay. […]. […]\nA follow-up MTD study was performed to evaluate for the adverse effects of the test substance (Compound 1) at escalating doses alone or in combination with […] (17.5 mg/kg) via IP in a group of 3 female NOD/SCID mice at 6-7 weeks of age.\nFor mortality, treatment with Compound 1 at escalating doses (200 mg/kg) alone and in combination with […] (17.5 mg/kg; given on the same day) were administered by IP injection to a group of 3 female NOD/SCID mice at 6-7 weeks of age. The mortality was monitored at 30 min and again at 3, 24, 48 and 72 hours after compound administrations.\nFor body weight, test substance (Compound 1) at escalating doses (200 mg/kg) alone or in combination with […] (17.5 mg/kg; given on the same day) were administered by IP injection to a group of 3 female NOD/SCID mice at 6-7 weeks of age. The body weight of each animal was measured and recorded daily for 3 days.\nFor behavioral, symptomatic i.e. neurological and autonomic signs, test substance (Compound 1; 200 mg/kg) alone or in combination with […] (17.5 mg/kg; given on the same day) were administered by IP injection to a group of 3 female NOD/SCID mice at 6-7 weeks of age. The animals were then observed for presences of acute toxic symptoms and autonomic effects for 30 min after the first dose."}, "[6]": {"target": "dopamine D1 (h) (Homo sapiens, UniProt P21728)", "sequence (P21728 whole entry)": "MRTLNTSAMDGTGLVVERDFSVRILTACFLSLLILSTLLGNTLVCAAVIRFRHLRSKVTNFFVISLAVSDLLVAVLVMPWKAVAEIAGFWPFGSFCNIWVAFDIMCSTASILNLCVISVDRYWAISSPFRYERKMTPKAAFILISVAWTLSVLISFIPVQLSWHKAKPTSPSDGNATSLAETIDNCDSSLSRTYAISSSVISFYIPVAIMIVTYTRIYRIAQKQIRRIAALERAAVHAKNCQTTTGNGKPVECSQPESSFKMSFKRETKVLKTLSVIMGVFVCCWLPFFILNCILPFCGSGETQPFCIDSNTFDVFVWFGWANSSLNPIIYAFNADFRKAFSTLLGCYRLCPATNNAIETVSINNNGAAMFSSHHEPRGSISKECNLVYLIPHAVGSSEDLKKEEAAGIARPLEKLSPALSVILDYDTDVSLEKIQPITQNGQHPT", "assay": "biochemical", "format": "binding"}, "[7]": {"tested_on": "CCL2 release from IL-4, IL-13, IL-22 and IFN-γ-stimulated primary human keratinocytes", "assay": "Keratinocyte CCL2 release (assay number 1280)", "format": "cell-based"}, "[8]": {"tested_on": "IL-4 secretion from human CD4-positive T-cells stimulated with antiCD2/antiCD3/antiCD28-coated beads", "assay": "T-cell IL-4 assay", "format": "cell-based"}, "[9]": {"target": "DNMT3b (Homo sapiens, UniProt Q9UBC3)", "conditions": "read-out: Reference IC50; cited from earlier work"}, "[10]": {"tested_on": "MLL4(h) complex", "conditions": "read-out: Reference: (IC50 not given); cited from earlier work"}, "[11]": {"target": "hSMYD2 (Homo sapiens, UniProt Q9NRG4)", "sequence (Q9NRG4 whole entry)": "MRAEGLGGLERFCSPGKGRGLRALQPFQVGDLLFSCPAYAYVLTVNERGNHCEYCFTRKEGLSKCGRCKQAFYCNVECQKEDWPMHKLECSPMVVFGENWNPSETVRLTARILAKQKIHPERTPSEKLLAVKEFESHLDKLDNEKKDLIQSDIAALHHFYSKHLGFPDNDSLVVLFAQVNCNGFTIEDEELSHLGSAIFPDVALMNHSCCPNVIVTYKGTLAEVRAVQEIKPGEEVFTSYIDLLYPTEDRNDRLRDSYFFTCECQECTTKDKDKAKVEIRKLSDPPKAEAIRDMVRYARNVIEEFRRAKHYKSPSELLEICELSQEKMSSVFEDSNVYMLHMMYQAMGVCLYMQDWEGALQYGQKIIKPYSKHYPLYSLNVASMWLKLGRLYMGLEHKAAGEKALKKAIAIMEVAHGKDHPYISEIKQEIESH", "conditions": "read-out: Reference: (IC50 not given); cited from earlier work"}, "[12]": {"target": "SETD2(h) (Homo sapiens, UniProt Q9BYW2)", "sequence (Q9BYW2 whole entry)": "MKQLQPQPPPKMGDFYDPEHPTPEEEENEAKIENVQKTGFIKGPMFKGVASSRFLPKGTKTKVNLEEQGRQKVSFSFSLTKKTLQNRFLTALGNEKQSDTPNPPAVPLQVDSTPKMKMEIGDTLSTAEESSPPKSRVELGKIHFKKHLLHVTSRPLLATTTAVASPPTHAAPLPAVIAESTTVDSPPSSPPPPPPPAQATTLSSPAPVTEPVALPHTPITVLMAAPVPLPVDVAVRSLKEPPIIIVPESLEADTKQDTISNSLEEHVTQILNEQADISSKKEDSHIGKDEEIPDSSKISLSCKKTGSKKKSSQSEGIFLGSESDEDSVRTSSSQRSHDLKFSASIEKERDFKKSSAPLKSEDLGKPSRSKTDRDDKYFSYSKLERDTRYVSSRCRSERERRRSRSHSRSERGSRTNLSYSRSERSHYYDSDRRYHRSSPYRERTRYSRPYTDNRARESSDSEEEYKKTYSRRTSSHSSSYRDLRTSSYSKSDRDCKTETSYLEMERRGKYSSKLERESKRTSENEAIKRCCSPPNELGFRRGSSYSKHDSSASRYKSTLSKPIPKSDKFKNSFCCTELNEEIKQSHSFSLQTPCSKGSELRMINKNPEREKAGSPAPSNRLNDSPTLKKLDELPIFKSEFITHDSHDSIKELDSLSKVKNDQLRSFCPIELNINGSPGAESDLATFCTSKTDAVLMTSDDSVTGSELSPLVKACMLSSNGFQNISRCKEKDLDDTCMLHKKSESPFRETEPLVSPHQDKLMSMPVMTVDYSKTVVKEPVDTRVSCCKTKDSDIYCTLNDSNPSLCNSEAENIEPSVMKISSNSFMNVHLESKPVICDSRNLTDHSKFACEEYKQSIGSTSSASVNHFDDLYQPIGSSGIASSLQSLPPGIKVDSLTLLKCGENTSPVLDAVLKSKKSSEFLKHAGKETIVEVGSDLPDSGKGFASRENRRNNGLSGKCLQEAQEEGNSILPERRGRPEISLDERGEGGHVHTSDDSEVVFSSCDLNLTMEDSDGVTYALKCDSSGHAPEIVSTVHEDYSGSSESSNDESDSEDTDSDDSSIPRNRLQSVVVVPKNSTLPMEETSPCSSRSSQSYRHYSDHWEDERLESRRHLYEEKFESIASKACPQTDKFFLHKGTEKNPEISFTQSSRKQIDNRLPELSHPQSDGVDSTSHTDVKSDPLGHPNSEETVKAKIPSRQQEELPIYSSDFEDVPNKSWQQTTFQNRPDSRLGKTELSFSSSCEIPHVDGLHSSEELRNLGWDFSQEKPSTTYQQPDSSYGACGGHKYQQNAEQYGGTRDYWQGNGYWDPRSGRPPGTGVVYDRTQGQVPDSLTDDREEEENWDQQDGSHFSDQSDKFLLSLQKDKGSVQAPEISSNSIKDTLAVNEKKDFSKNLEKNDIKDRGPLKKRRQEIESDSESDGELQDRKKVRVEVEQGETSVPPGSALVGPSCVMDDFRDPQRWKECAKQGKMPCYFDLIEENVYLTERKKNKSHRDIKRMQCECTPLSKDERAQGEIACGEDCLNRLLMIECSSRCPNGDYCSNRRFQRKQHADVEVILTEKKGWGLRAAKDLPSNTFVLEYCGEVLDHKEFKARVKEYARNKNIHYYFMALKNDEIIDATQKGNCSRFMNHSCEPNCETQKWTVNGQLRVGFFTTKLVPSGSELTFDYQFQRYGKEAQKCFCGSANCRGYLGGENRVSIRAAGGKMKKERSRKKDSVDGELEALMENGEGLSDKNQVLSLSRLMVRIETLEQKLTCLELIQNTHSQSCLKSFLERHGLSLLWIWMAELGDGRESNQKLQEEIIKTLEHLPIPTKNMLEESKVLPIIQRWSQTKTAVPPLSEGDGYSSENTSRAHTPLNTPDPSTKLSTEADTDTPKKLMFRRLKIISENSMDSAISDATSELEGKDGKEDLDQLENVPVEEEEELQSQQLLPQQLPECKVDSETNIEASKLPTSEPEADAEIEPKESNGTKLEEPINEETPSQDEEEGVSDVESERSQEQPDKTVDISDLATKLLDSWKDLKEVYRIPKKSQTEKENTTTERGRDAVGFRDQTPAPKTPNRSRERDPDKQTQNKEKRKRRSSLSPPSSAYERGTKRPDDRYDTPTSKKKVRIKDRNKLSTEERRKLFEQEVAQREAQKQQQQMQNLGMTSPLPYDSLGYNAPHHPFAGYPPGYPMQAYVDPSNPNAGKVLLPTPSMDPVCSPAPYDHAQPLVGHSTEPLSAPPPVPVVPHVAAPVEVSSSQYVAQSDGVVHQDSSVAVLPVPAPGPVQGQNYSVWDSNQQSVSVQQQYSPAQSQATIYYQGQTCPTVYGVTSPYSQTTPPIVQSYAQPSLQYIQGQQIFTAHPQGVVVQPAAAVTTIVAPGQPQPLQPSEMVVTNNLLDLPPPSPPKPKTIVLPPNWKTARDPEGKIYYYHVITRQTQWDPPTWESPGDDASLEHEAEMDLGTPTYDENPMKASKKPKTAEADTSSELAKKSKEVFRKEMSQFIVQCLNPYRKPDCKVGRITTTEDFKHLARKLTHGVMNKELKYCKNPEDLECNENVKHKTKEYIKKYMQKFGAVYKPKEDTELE", "conditions": "read-out: Reference: (IC50 not given); cited from earlier work"}, "[13]": {"conditions": "200 mg/kg IP, individual mice No. 1-3, 30 min after first dose, Study 2 Round 1"}},
  "note": "Several values for one entry are separate records, joined by “and”; a condition that tells them apart may be missing. Equal entries are not always repeated. Where two headings read alike, the source gives them in different places. For Autonomic signs: Death in this document: key: −: no effects; ±: Slight to moderate effects; +: Severe effects; ↓: Low; D: Deep. For Autonomic signs: Dec. Palpebral Size in this document: key: −: no effects; ±: Slight to moderate effects; +: Severe effects; ↓: Low; D: Deep. For Autonomic signs: Diarrhea in this document: key: −: no effects; ±: Slight to moderate effects; +: Severe effects; ↓: Low; D: Deep. For Autonomic signs: Inc. Palpebral Size in this document: key: −: no effects; ±: Slight to moderate effects; +: Severe effects; ↓: Low; D: Deep.",
  "data": [
    {"smiles": "CC(C)=CCC[C@H](CO)[C@@H]1CC[C@@H](C)c2c1cc(C)c(O)c2O", "note": "[Compound 1, 7,8,18-trihydroxyserrulat-14-ene]", "values": [
      {"measurement": "Relative cell count (%) Mean", "setting": "[1]; 3.00E+00 microM", "value": 85.1, "unit": "%"},
      {"measurement": "Relative cell count (%) Mean", "setting": "[1]; 3.00E+01 microM", "value": 20.9, "unit": "%"},
      {"measurement": "Relative cell count (%) Mean", "setting": "[1]; 3.01E−01 microM", "value": 96.7, "unit": "%"},
      {"measurement": "Relative cell count (%) Mean", "setting": "[1]; 3.01E−02 microM", "value": 96.0, "unit": "%"},
      {"measurement": "Relative cell count (%) Mean", "setting": "[1]; 3.02E−03 microM", "value": 94.0, "unit": "%"},
      {"measurement": "Relative cell count (%) Mean", "setting": "[1]; 9.49E+00 microM", "value": 40.4, "unit": "%"},
      {"measurement": "Relative cell count (%) Mean", "setting": "[1]; 9.51E−01 microM", "value": 89.3, "unit": "%"},
      {"measurement": "Relative cell count (%) Mean", "setting": "[1]; 9.52E−02 microM", "value": 95.8, "unit": "%"},
      {"measurement": "Relative cell count (%) Mean", "setting": "[1]; 9.53E−03 microM", "value": 93.3, "unit": "%"},
      {"measurement": "Relative cell count (%) Mean", "setting": "[1]; 9.55E−04 microM", "value": 98.5, "unit": "%"},
      {"measurement": "EC50", "setting": "[1]; 72 h, renal mixed epithelial, 3-day incubation, read-out: Cell Count EC50", "value": 6.45, "unit": "µM"},
      {"measurement": "GI50", "setting": "[1]; 72 h, renal mixed epithelial, 3-day incubation, read-out: Cell Count GI50", "value": 4.3, "unit": "µM"},
      {"measurement": "IC50", "setting": "[1]; 72 h, renal mixed epithelial, 3-day incubation, read-out: Cell Count IC50", "value": 7.98, "unit": "µM"},
      {"measurement": "IC50", "setting": "[2]", "value": 1.47, "unit": "µM"},
      {"measurement": "cytotoxicity", "setting": "[3]", "value": 103, "unit": "%"},
      {"measurement": "EC50", "setting": "[4]", "value": 0.708, "unit": "µM"},
      {"measurement": "Autonomic signs: Body Temperature", "setting": "[5]; [13]", "value": "↓+"},
      {"measurement": "Autonomic signs: Death", "setting": "[5]; [13]", "value": "−"},
      {"measurement": "Autonomic signs: Dec. Palpebral Size", "setting": "[5]; [13]", "value": "−"},
      {"measurement": "Autonomic signs: Diarrhea", "setting": "[5]; [13]", "value": "−"},
      {"measurement": "Autonomic signs: Inc. Palpebral Size", "setting": "[5]; [13]", "value": "−"},
      {"measurement": "Autonomic signs: Lacrimation", "setting": "[5]; [13]", "value": "−"},
      {"measurement": "Autonomic signs: Others", "setting": "[5]; [13]", "value": "−"},
      {"measurement": "Autonomic signs: Piloerection", "setting": "[5]; [13]", "value": "−"},
      {"measurement": "Autonomic signs: Salivation F.V.", "setting": "[5]; [13]", "value": "−"},
      {"measurement": "Autonomic signs: Skin Color", "setting": "[5]; [13]", "value": "−"},
      {"measurement": "adverse effects", "setting": "[5]; Study 1, Compound 1 100 mg/kg IP alone", "value": "did not elicit significant adverse effects"},
      {"measurement": "survival", "setting": "[5]; Study 1, Compound 1 100 mg/kg IP alone, 72-hour observation period", "value": "All test animals survived"},
      {"measurement": "Response (death/test)", "setting": "[5]; Study 1, IP, 100 mg/kg, 30 min", "value": "0/3"},
      {"measurement": "Response (death/test)", "setting": "[5]; Study 1, IP, 100 mg/kg, 3 hrs", "value": "0/3"},
      {"measurement": "Response (death/test)", "setting": "[5]; Study 1, IP, 100 mg/kg, Day 1", "value": "0/3"},
      {"measurement": "Response (death/test)", "setting": "[5]; Study 1, IP, 100 mg/kg, Day 2", "value": "0/3"},
      {"measurement": "Response (death/test)", "setting": "[5]; Study 1, IP, 100 mg/kg, Day 3", "value": "0/3"},
      {"measurement": "autonomic sign", "setting": "[5]; Study 2, 200 mg/kg IP, 30 min after dose", "value": "Hypothermia"},
      {"measurement": "Response (death/test)", "setting": "[5]; Study 2, IP, 200 mg/kg, 30 min", "value": "0/3"},
      {"measurement": "Response (death/test)", "setting": "[5]; Study 2, IP, 200 mg/kg, 3 hrs", "value": "0/3"},
      {"measurement": "Body Weight", "setting": "[5]; Study 2, IP, 200 mg/kg, Day 0, 200 mg/kg", "value": "22 g and 21 g (2×)"},
      {"measurement": "Response (death/test)", "setting": "[5]; Study 2, IP, 200 mg/kg, Day 1", "value": "1/3"},
      {"measurement": "Body Weight", "setting": "[5]; Study 2, IP, 200 mg/kg, Day 1", "value": 21, "unit": "g"},
      {"measurement": "Response (death/test)", "setting": "[5]; Study 2, IP, 200 mg/kg, Day 2", "value": "3/3"},
      {"measurement": "Response (death/test)", "setting": "[5]; Study 2, IP, 200 mg/kg, Day 3", "value": "3/3"},
      {"measurement": "B.W.", "setting": "[5]; Study 2 Round 1, signs table, IP, 200 mg/kg, animals No. 1-3", "value": "22 g and 21 g"},
      {"measurement": "inhibition at 10 µM", "setting": "[6]; DOPAMINE D1 (h) (antagonist radioligand), read-out: % Inhibition of Control Specific Binding", "value": 67, "unit": "%"},
      {"measurement": "inhibition at 10 µM", "setting": "[6]; read-out: % inhibition of control specific binding", "value": 67, "unit": "%"},
      {"measurement": "Emax", "setting": "[7]; read-out: Inhibition of CCL2 release, Max Effect", "value": 101, "unit": "%"},
      {"measurement": "EC50", "setting": "[7]; read-out: Inhibition of CCL2 release, Rel EC50", "value": 0.0922, "unit": "µM"},
      {"measurement": "Emax", "setting": "[8]; read-out: Inhibition of IL-4 release, Max Effect", "value": 100, "unit": "%"},
      {"measurement": "EC50", "setting": "[8]; read-out: Inhibition of IL-4 release, Rel EC50", "value": 0.523, "unit": "µM"}
    ]},
    {"smiles": "Nc1ncnc2c1ncn2[C@@H]1O[C@H](CSCC[C@H](N)C(=O)O)[C@@H](O)[C@H]1O", "note": "[SAH]", "values": [
      {"measurement": "IC50", "setting": "[9]", "value": 0.094, "unit": "µM"},
      {"measurement": "IC50", "setting": "[10]", "value": 0.97, "unit": "µM"},
      {"measurement": "IC50", "setting": "[11]", "value": 0.16, "unit": "µM"},
      {"measurement": "IC50", "setting": "[12]", "value": 1.2, "unit": "µM"}
    ]}
  ]
}
